From patent US20210380586A1, “2-INDOLYL IMIDAZO[4,5-D]PHENANTHROLINE POLYMORPHS AND COMPOSITIONS REGARDING THE SAME” (Aptose Biosciences Inc., priority 2020, published 2021)

Experiments:
[1] = Single dose intravenous infusion in rats, toxicokinetic parameters in serum; type: in vivo, Sprague-Dawley rats
Description: Compound I-hydrate Form 2 was formulated in 23% Solutol HS-15 and 70% PG and diluted with Lactated Ringer Solution to a concentration of 0.061 mg/mL. […] Dose volume was 10 mL/Kg and the infusion rate was 120 mL/kg/hr.
Following dosing, a series of 12 blood samples (approximately 0.2 mL each) were collected from the rats in the first 72 hours. Following collection, blood samples were allowed to stand at room temperature for approximately 30 to 60 minutes to clot and then centrifused (1200×g for 10 minutes at approximately 4° C.) and the resulting serum was recovered and stored frozen until analysis. Mean toxicokinetic parameters were calculated (Table 7).

[2] = Polymorph transition study, slurry in water-methanol, XRPD; type: physicochemical; conditions: in the presence of water
Description: The Slurry was maintained at 20° C. or at 50° C. for one week then the resulting crystals were analyzed by XRPD to determine its polymorphic form.

[3] = Effect of drying on polymorphic form, XRPD; type: physicochemical
Description: Crystalline Compound I-tetrahydrate Form 2 was dried under varying temperature, pressure, and time as indicted in Table 2. After the drying, the resulting crystals were analyzed by XRPD to determine its polymorphic form.

[4] = Variable relative humidity (VRH)-XRPD analysis; type: physicochemical
Description: To investigate the behavior of Crystalline Form 2 at various humidities and evaluate conditions that favor generation of Form 2 (tetrahydrate) versus Form 3 (dihydrate), Form 2 was characterized by VRH-XRPD. The analysis was conducted by beginning at ambient RH (˜50%) and lowering to 0% RH for 4 hours. Actual RH during this time ranged from 0.7-0.3%.

[5] = Exposure of solids to fixed relative humidity for 11 days, XRPD; type: physicochemical; conditions: for form after exposure to humidity: 11 days
Description: To determine relative humidity boundaries for conversion between Form 2 and Form 3, solids of Form 2 were exposed to P2O5 conditions (˜0% RH), 11%, and 23% RH. The solids were held at the specified humidities for 11 days to see if the longer duration would result in the presence of Form 3.

[6] = Dynamic vapor sorption (DVS); type: physicochemical
Description: The mass uptake of 12% is equal to three equivalents of water; however, the material was not fully dry yet after drying at 0% RH for 24 hours. […] The water uptake and release is not stepwise, and no indication of other hydrates with different ratios of water is present.
Compound I-hydrate Form 2 was also analyzed by DVS (FIG. 14). Form 2 steadily gained 1.1 wt % from 5-95% RH. It underwent complete desorption with minor hysteresis.

[7] = USP <788> Method 1 HIAC particle count after mixing with Lactated Ringers; type: physicochemical; conditions: 4 mg/mL mixed with Lactated Ringers 2:1, held in glass or Nalgene container
Description: In USP <788> monograph, two methods were provided to determine particles or particulate matter in an injectable drug, i.e. using an analytical instrument to count particle or Method I (e.g. electronic light obscuration or HIAC method) or counting the particles using an optical microscope (Method 2). Prior to conducting the End-User Compatibility Study, a study was performed to determine the feasibility of sample collection and assessment by USP <788> Method I (HIAC analysis). For this study, Compound I-tetrahydrate (4 mg/mL) was mixed with Lactated Ringers IV Solution in a 2:1 ratio of Lactated Ringers solution to Compound I-tetrahydrate and held in a glass or Nalgene plastic container. Samples were held for 1, 5, 10, 15, 20, 25 and 30 minutes and analyzed by USP <788> Method 1 using a HIAC electronic light obscuration particle counter. […] This short time duration precluded the use of USP <788> Method 1 (HIAC) due to the large sample volumes (˜25 mL) and length of time required to collect this volume of sample, drop wise, from the infusion set.

Compound `Cc1[nH]c2ccc(F)cc2c1-c1nc2c3cccnc3c3ncccc3c2[nH]1` [Compound I-hydrate Form 2] has an AUC(0-inf) ([1]; Sprague-Dawley, rat, male rats serum, 0.5 mg/kg, single IV infusion over 5 min, mean) of 130 ng·h/mL, an AUC(0-t) ([1]; Sprague-Dawley, rat, male rats serum, 0.5 mg/kg, single IV infusion over 5 min, mean, read-out: AUC0-Tlast) of 100 ng·h/mL and a clearance ([1]; Sprague-Dawley, rat, male rats serum, 0.5 mg/kg, single IV infusion over 5 min, mean, read-out: Cl (total body clearance per kg body weight) (converted)) of 64 mL/min/kg. The Cmax ([1]; Sprague-Dawley, rat, male rats serum, 0.5 mg/kg, single IV infusion over 5 min, mean, read-out: Cmax (maximum plasma concentration)) was 1750 ng/mL, the half-life ([1]; Sprague-Dawley, rat, male rats serum, 0.5 mg/kg, single IV infusion over 5 min, mean, read-out: T1/2 (Terminal elimination half-life) (converted)) was 87 min and the Tmax ([1]; Sprague-Dawley, rat, male rats serum, 0.5 mg/kg, single IV infusion over 5 min, mean, read-out: Tmax (time to maximum plasma concentration)) was 0 h. For the same compound, the Vd ([1]; Sprague-Dawley, rat, male rats serum, 0.5 mg/kg, single IV infusion over 5 min, mean, read-out: Vz (volume of distribution per kg body weight)) was 8.04 L/kg, the “AUC % Extrap” value ([1]; male rats serum, 0.5 mg/kg, single IV infusion over 5 min, mean) was 23.1% and the “AUCs, fold higher than with Compound I-HCl salt” value ([1]; rats, 0.5 mg/kg IV) was “approximately 3 fold”. The “Cmax, fold higher than with Compound I-HCl salt” value ([1]; rats, 0.5 mg/kg IV) was “approximately 3 fold”, the “volume of distribution, fold higher than Compound I-HCl salt” value ([1]; rats, 0.5 mg/kg IV) was 1.6 fold and the “stability relative to Crystalline Form 1” value [2] was “more stable”. For the same compound, the “stability under various drying conditions” value ([3]; 15-35 ° C., 600-0 mbar, up to 3 days) was “stable”, the “Polymorphic form by XRPD after drying” value ([3]; 15 ° C., 0 mbar, drying time 1 h) was “Form 2” and the “Polymorphic form by XRPD after drying” value ([3]; 15 ° C., 0 mbar, drying time 4 h) was “Form 1”. The “Polymorphic form by XRPD after drying” value ([3]; 15 ° C., 0 mbar, drying time 24 h) was “Form 1”, the “Polymorphic form by XRPD after drying” value ([3]; 15 ° C., 0 mbar, drying time 3 days) was “Form 1” and the “Polymorphic form by XRPD after drying” value ([3]; 15 ° C., 400 mbar, drying time 1 h) was “Form 2”. The “Polymorphic form by XRPD after drying” value ([3]; 15 ° C., 400 mbar, drying time 4 h) was “Form 2”, the “Polymorphic form by XRPD after drying” value ([3]; 15 ° C., 400 mbar, drying time 24 h) was “Form 2” and the “Polymorphic form by XRPD after drying” value ([3]; 15 ° C., 400 mbar, drying time 3 days) was “Form 2”. The “Polymorphic form by XRPD after drying” value ([3]; 15 ° C., 600 mbar, drying time 1 h) was “Form 2”, the “Polymorphic form by XRPD after drying” value ([3]; 15 ° C., 600 mbar, drying time 4 h) was “Form 2” and the “Polymorphic form by XRPD after drying” value ([3]; 15 ° C., 600 mbar, drying time 24 h) was “Form 2”. The “Polymorphic form by XRPD after drying” value ([3]; 15 ° C., 600 mbar, drying time 3 days) was “Form 2”, the “Polymorphic form by XRPD after drying” value ([3]; 25 ° C., 0 mbar, drying time 1 h) was “Form 2” and the “Polymorphic form by XRPD after drying” value ([3]; 25 ° C., 0 mbar, drying time 4 h) was “Form 1”. For the same compound, the “Polymorphic form by XRPD after drying” value ([3]; 25 ° C., 0 mbar, drying time 24 h) was “Form 1”, the “Polymorphic form by XRPD after drying” value ([3]; 25 ° C., 400 mbar, drying time 1 h) was “Form 2” and the “Polymorphic form by XRPD after drying” value ([3]; 25 ° C., 400 mbar, drying time 4 h) was “Form 2”. For the same compound, the “Polymorphic form by XRPD after drying” value ([3]; 25 ° C., 400 mbar, drying time 24 h) was “Form 2”, the “Polymorphic form by XRPD after drying” value ([3]; 25 ° C., 400 mbar, drying time 3 days) was “Form 2” and the “Polymorphic form by XRPD after drying” value ([3]; 25 ° C., 600 mbar, drying time 1 h) was “Form 2”. For the same compound, the “Polymorphic form by XRPD after drying” value ([3]; 25 ° C., 600 mbar, drying time 4 h) was “Form 2”, the “Polymorphic form by XRPD after drying” value ([3]; 25 ° C., 600 mbar, drying time 24 h) was “Form 2” and the “Polymorphic form by XRPD after drying” value ([3]; 25 ° C., 600 mbar, drying time 3 days) was “Form 2”. For the same compound, the “Polymorphic form by XRPD after drying” value ([3]; 35 ° C., 0 mbar, drying time 1 h) was “Form 1 and Form 2”, the “Polymorphic form by XRPD after drying” value ([3]; 35 ° C., 0 mbar, drying time 4 h) was “Form 1” and the “Polymorphic form by XRPD after drying” value ([3]; 35 ° C., 0 mbar, drying time 24 h) was “Form 1”. The “Polymorphic form by XRPD after drying” value ([3]; 35 ° C., 400 mbar, drying time 1 h) was “Form 2”, the “Polymorphic form by XRPD after drying” value ([3]; 35 ° C., 400 mbar, drying time 4 h) was “Form 2” and the “Polymorphic form by XRPD after drying” value ([3]; 35 ° C., 400 mbar, drying time 24 h) was “Form 2”. The “Polymorphic form by XRPD after drying” value ([3]; 35 ° C., 600 mbar, drying time 1 h) was “Form 2”, the “Polymorphic form by XRPD after drying” value ([3]; 35 ° C., 600 mbar, drying time 4 h) was “Form 2” and the “Polymorphic form by XRPD after drying” value ([3]; 35 ° C., 600 mbar, drying time 24 h) was “Form 2”. The “form change under full vacuum” value ([3]; full vacuum (0 mbar) for four hours, all temperature tested) was “complete conversion to Form 1”, the “VRH-XRPD Results” value ([4]; Held at ~0.3-0.7% RH, 4 hours) was “Form 2 + Form 3; amount of Form 3” and the “VRH-XRPD Results” value ([4]; Initial scan at ambient RH (46.3%)) was “Consistent with Form 2”. For the same compound, the “VRH-XRPD Results” value ([4]; finally held at ambient RH (~40% to ~37%)) was “Form 2 + trace amount of Form 3”, the “VRH-XRPD Results” value ([4]; then held at ~50% RH, 1 hour (cycling back)) was “Form 2, possibly contains trace” and the “VRH-XRPD Results” value ([4]; then held at ~50% RH, 1 hour (increasing RH)) was “Form 2 + Form 3”. For the same compound, the “VRH-XRPD Results” value ([4]; then held at ~80% RH, 1 hour (cycling back)) was “Form 2, possibly contains trace”, the “VRH-XRPD Results” value ([4]; then held at ~82-79% RH, 1 hour) was “Form 2 + trace amount of Form 3” and the “VRH-XRPD Results” value ([4]; then held at ~85-87% RH, 2 hours) was “Form 2, possibly contains trace”. The “form after exposure to humidity” value ([5]; 11% RH) was “no form change”, the “form after exposure to humidity” value ([5]; 23% RH) was “no form change” and the “form after exposure to humidity” value ([5]; P2O5 conditions (~0% RH)) was “converts to Form 3”. For the same compound, the “relative humidity at and above which physically stable” value ([5]; exposed for over a week) was ≥ 11 % RH, the “XRPD of the post-DVS solids” value ([6]; after sorption to 95% RH and desorption to 5% RH) was “No form change” and the “DVS total mass uptake” value ([6]; continuous isothermal adsorption of water after drying at 0% RH for 24 hours (FIGS. 7 and 8)) was 12%. For the same compound, the DVS weight gain ([6]; from 5-95% RH) was 1.1 wt %, the “stability in DVS de-sorption cycle” value ([6]; stable signal down to 10% RH) was “very stable” and the “time at which particulate formed at levels exceeding USP acceptance criteria” value [7] was “approximately 10 minutes”.
